Measured values as given in patent publication US20240252488A1 (KOREA RESEARCH INSTITUTE OF CHEMICAL TECHNOLOGY, priority 2020, published 2024).

Experiments:
[1] = tested on: FADD−/− Jurkat cells; test: Necroptosis inhibition assay, TNF-α-induced necroptosis (CellTiter-Glo 2.0); assay type: cell-based, human; conditions: TNF-α 15 ng/mL; for Necroptosis inhibition assay (Rescue %) 1 μM: compound 1 μM; for Necroptosis inhibition assay (Rescue %) 10 μM: compound 10 μM
In short: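 Cmpd 0.1/1/10 μM final, 30 min RT preincubation; TNF-α 15 ng/mL final; 20–24 h, 37° C, 5% CO2. Readout: ATP luminescence (reagent 1:3 in PBS), 0.5 s/well. Cytotoxicity and % necroptosis inhibition calculated from signal.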

[2] = molecular target: T1, MLKL (Homo sapiens, UniProt Q8NB16); test: Measurement of binding affinity with MLKL receptor (competitive binding assay, Kd); design: made in house; host or cells: HEK 293 cell line (T7 phage in E. coli BL21-derived host is also described)
T1 sequence (Q8NB16 1-471): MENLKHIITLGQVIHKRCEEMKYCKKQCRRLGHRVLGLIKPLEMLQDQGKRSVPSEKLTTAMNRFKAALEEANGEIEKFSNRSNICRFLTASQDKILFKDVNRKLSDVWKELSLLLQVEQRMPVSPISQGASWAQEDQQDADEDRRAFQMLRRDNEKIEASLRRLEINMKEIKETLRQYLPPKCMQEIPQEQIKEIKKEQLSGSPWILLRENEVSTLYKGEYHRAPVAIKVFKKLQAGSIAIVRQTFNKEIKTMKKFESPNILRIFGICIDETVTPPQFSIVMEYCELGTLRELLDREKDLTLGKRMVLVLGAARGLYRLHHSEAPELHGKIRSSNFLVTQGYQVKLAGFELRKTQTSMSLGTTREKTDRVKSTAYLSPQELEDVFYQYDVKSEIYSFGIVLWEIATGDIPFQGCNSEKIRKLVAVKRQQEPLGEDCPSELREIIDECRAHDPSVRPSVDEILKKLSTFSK
In short: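 HEK 293-expressed, DNA-tagged MLKL; ligand beads blocked with biotin and SeaBlock/1% BSA/0.05% Tween 20/1 mM DTT buffer. Cpd from 111× DMSO stock, 0.9% DMSO final. Eluted kinase by qPCR → Kd.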

Row | Structure (SMILES) | Kd [2] [nM] | Necroptosis inhibition assay (Rescue %) 1 μM [1] [%] | Necroptosis inhibition assay (Rescue %) 10 μM [1] [%]
1 | Nc1ncc(-c2cnn(C3CCN(CCOCCOCCNc4ccc5c(c4)C(=O)N(C4CCC(=O)NC4=O)C5=O)CC3)c2)nc1C(=O)O[C@@H](C(=O)Nc1ccc(F)cc1)c1ccccc1 (stereo partly drawn) [TDH-122, (R)-2-((4-fluorophenyl)amino)-2-oxo-1-phenylethyl 3-amino-6-(1-(1-(2-(2-(2-((2-(2,6-dioxopiperidin-3-yl)-1,3-dioxoisoindolin-5-yl)amino)ethoxy)ethoxy)ethyl)piperidin-4-yl)-1H-pyrazol-4-yl)pyrazine-2-carboxylate] | 1.8 | 20.17 | –
2 | Nc1ncc(-c2cnn(C3CCN(C(=O)CCCCCNC(=O)CNc4ccc5c(c4)C(=O)N(C4CCC(=O)NC4=O)C5=O)CC3)c2)nc1C(=O)O[C@@H](C(=O)Nc1ccc(F)cc1)c1ccccc1 (stereo partly drawn) [TDH-123, (R)-2-((4-fluorophenyl)amino)-2-oxo-1-phenylethyl 3-amino-6-(1-(1-(6-(2-((2-(2,6-dioxopiperidin-3-yl)-1,3-dioxoisoindolin-5-yl)amino)acetamido)hexanoyl)piperidin-4-yl)-1H-pyrazol-4-yl)pyrazine-2-carboxylate] | 0.89 | 8.69 | 8.92
3 | Nc1ncc(-c2cnn(C3CCN(CCCCCCCCCCNc4ccc5c(c4)C(=O)N(C4CCC(=O)NC4=O)C5=O)CC3)c2)nc1C(=O)O[C@@H](C(=O)Nc1ccc(F)cc1)c1ccccc1 (stereo partly drawn) [TDH-160, (R)-2-((4-fluorophenyl)amino)-2-oxo-1-phenylethyl 3-amino-6-(1-(1-(10-((2-(2,6-dioxopiperidin-3-yl)-1,3-dioxoisoindolin-5-yl)amino)decyl)piperidin-4-yl)-1H-pyrazol-4-yl)pyrazine-2-carboxylate] | 9.4 | 3.59 | –
4 | Nc1ncc(-c2cnn(C3CCN(CCCCCCCCCCNC(=O)CNc4cccc5c4C(=O)N(C4CCC(=O)NC4=O)C5=O)CC3)c2)nc1C(=O)O[C@@H](C(=O)Nc1ccc(F)cc1)c1ccccc1 (stereo partly drawn) [TDH-161, (R)-2-((4-fluorophenyl)amino)-2-oxo-1-phenylethyl 3-amino-6-(1-(1-(10-(2-((2-(2,6-dioxopiperidin-3-yl)-1,3-dioxoisoindolin-4-yl)amino)acetamido)decyl)piperidin-4-yl)-1H-pyrazol-4-yl)pyrazine-2-carboxylate] | 29 | 25.81 | 35.81
5 | Nc1ncc(-c2cnn(C3CCN(CCCCCCCCCCNC(=O)CNc4ccc5c(c4)C(=O)N(C4CCC(=O)NC4=O)C5=O)CC3)c2)nc1C(=O)O[C@@H](C(=O)Nc1ccc(F)cc1)c1ccccc1 (stereo partly drawn) [TDH-162, (R)-2-((4-fluorophenyl)amino)-2-oxo-1-phenylethyl 3-amino-6-(1-(1-(10-(2-((2-(2,6-dioxopiperidin-3-yl)-1,3-dioxoisoindolin-5-yl)amino)acetamido)decyl)piperidin-4-yl)-1H-pyrazol-4-yl)pyrazine-2-carboxylate] | 11 | 36.55 | 26.25
6 | Nc1ncc(-c2cnn(C3CCN(CCCCCCCCCCNC(=O)COc4cccc5c4C(=O)N(C4CCC(=O)NC4=O)C5=O)CC3)c2)nc1C(=O)O[C@@H](C(=O)Nc1ccc(F)cc1)c1ccccc1 (stereo partly drawn) [TDH-163, (R)-2-((4-fluorophenyl)amino)-2-oxo-1-phenylethyl 3-amino-6-(1-(1-(10-(2-((2-(2,6-dioxopiperidin-3-yl)-1,3-dioxoisoindolin-4-yl)oxy)acetamido)decyl)piperidin-4-yl)-1H-pyrazol-4-yl)pyrazine-2-carboxylate] | 45 | 30.03 | 28.56

Further lines, with some results ahead:

Row | Kd [2] [nM] | Structure (SMILES) | Necroptosis inhibition assay (Rescue %) 1 μM [1] [%] | Necroptosis inhibition assay (Rescue %) 10 μM [1] [%]
7 | 6.1 | Nc1ncc(-c2cnn(C3CCN(C(=O)COCCOCCNC(=O)C4CN(c5cccc6c5C(=O)N(C5CCC(=O)NC5=O)C6=O)C4)CC3)c2)nc1C(=O)O[C@@H](C(=O)Nc1ccc(F)cc1)c1ccccc1 (stereo partly drawn) [TDH-192, (R)-2-((4-fluorophenyl)amino)-2-oxo-1-phenylethyl 3-amino-6-(1-(1-(2-(2-(2-(1-(2-(2,6-dioxopiperidin-3-yl)-1,3-dioxoisoindolin-4-yl)azetidine-3-carboxamido)ethoxy)ethoxy)acetyl)piperidin-4-yl)-1H-pyrazol-4-yl)pyrazine-2-carboxylate] | 50.37 | 45.32
8 | 350 | Nc1ncc(-c2cnn(C3CCN(CC4CCN(c5cccc6c5C(=O)N(C5CCC(=O)NC5=O)C6=O)CC4)CC3)c2)nc1C(=O)N[C@@H](C(=O)Nc1ccc(F)cc1)c1ccccc1 (stereo partly drawn) [TDH-208, 3-amino-6-(1-(1-((1-(2-(2,6-dioxopiperidin-3-yl)-1,3-dioxoisoindolin-4-yl)piperidin-4-yl)methyl)piperidin-4-yl)-1H-pyrazol-4-yl)-N-((R)-2-((4-fluorophenyl)amino)-2-oxo-1-phenylethyl)pyrazine-2-carboxamide] | – | 15.28
9 | 300 | Nc1ncc(-c2cnn(C3CCN(CC4CCN(C(=O)C5CCN(c6ccc7c(c6)C(=O)N(C6CCC(=O)NC6=O)C7=O)CC5)CC4)CC3)c2)nc1C(=O)N[C@@H](C(=O)Nc1ccc(F)cc1)c1ccccc1 (stereo partly drawn) [TDH-210, 3-amino-6-(1-(1-((1-(1-(2-(2,6-dioxopiperidin-3-yl)-1,3-dioxoisoindolin-5-yl)piperidine-4-carbonyl)piperidin-4-yl)methyl)piperidin-4-yl)-1H-pyrazol-4-yl)-N-((R)-2-((4-fluorophenyl)amino)-2-oxo-1-phenylethyl)pyrazine-2-carboxamide] | 7.5 | 10.08
10 | 11 | Cc1ncsc1-c1ccc(CNC(=O)[C@@H]2C[C@@H](O)CN2C(=O)[C@@H](NC(=O)CCC(=O)N2CCC(CN3CCC(n4cc(-c5cnc(N)c(C(=O)O[C@@H](C(=O)Nc6ccc(F)cc6)c6ccccc6)n5)cn4)CC3)CC2)C(C)(C)C)cc1 [TDH-212, (R)-2-((4-fluorophenyl)amino)-2-oxo-1-phenylethyl 3-amino-6-(1-(1-((1-(4-(((S)-1-((2S,4R)-4-hydroxy-2-((4-(4-methylthiazol-5-yl)benzyl)carbamoyl)pyrrolidin-1-yl)-3,3-dimethyl-1-oxobutan-2-yl)amino)-4-oxobutanoyl)piperidin-4-yl)methyl)piperidin-4-yl)-1H-pyrazol-4-yl)pyrazine-2-carboxylate] | 24.34 | 49.14
11 | 180 | Nc1ncc(-c2cnn(C3CCN(CCOCCOCCNC(=O)C4CCN(c5ccc6c(c5)C(=O)N(C5CCC(=O)NC5=O)C6=O)CC4)CC3)c2)nc1C(=O)N[C@@H](C(=O)Nc1ccc(F)cc1)c1ccccc1 (stereo partly drawn) [TDH-214, 3-amino-6-(1-(1-(2-(2-(2-(1-(2-(2,6-dioxopiperidin-3-yl)-1,3-dioxoisoindolin-5-yl)piperidine-4-carboxamido)ethoxy)ethoxy)ethyl)piperidin-4-yl)-1H-pyrazol-4-yl)-N-((R)-2-((4-fluorophenyl)amino)-2-oxo-1-phenylethyl)pyrazine-2-carboxamide] | 26.74 | 48.41
